Measurements as given in patent US11229709B2, “Dendrimer drug conjugates for sustained intra-articular delivery” (Massachusetts Institute of Technology, priority 2017, dated 2022).

Columns and labels:
[1] = system: medial tibia cartilage degeneration; experiment: Rat surgical osteoarthritis model ACLT+MMx, histological analysis; assay type: in vivo; design: mean area of degenerated medial tibial cartilage, % of total cartilage area: dose or concentration left out as unconfirmed; conditions: single intra-articular injection 48 hours after surgery
Method: (§1) Skeletally mature male Sprague-Dawley rats of 12 weeks of age (350-400 g, Taconic) were injured by the Anterior Cruciate Ligament Transection and Partial Medial Meniscectomy (ACLT+pMMx) method to induce arthritis. […] Treatments were given by intra-articular injection into the affected joint 48 hours after surgery, using a joint concentration of 6 M IGF-1. Rats were sacrificed for analysis 30 days after surgery.
Histological processing and analysis was performed according to the guidelines for rat surgical models by the Osteoarthritis Research Society International (OARSI) histopathology initiative (Gerwin et al, Osteoarthritis and Cartilage, 2010, Schmitz et al, Osteoarthritis and Cartilage 2010). Six 250 μm frontal step sections were taken from the central ˜1.5 mm of the joint and stained with Toluidine Blue/Fast Green. Aggrecan in healthy cartilage is stained blue (dark) and collagens in bone or degenerated cartilage are stained green (light). The section with the most severe medial tibia cartilage lesion was identified by a blinded investigator and used for all further analysis. Sections were scored quantitatively for degeneration in a blinded manner by histomorphometry techniques based on OARSI histopathology initiative guidelines.
Degenerated tissue was defined as >50% cell death and loss of toluidine blue staining. […]

osteophytes = experiment: Rat surgical osteoarthritis model ACLT+MMx, micro-computed tomography osteophyte volume; assay type: in vivo; conditions: single injection after surgery
Method: as §1
After fixation and before decalcification, excised rat joints were attached to the bore of a microCT scanner (GE eXplore CT 120) and scanned at 0.03° angles for a total of 1200 scans over a time period of 1.5 hours. Scans used an 80 kV x-ray potential, 32 mA current, and a 100 ms integration time. Image data sets were reconstructed into regions of interest encompassing single joints using Microview software (Parallax Innovations).
3D positioning data were used to quantify total volume of osteophytes (bone spurs) on each joint. 3D DICOM analysis software (Osirix MD) was used by a blinded investigator to re-section the images into a uniform frontal plane, perpendicular to an axis tangential to the femoral condyles and tibial plateau in the sagittal plane and an axis bisecting the femoral condyles and tibial plateau in the transverse plane. […] The sections were then reconstructed to 3D, and total osteophyte ROI volume was calculated for each rat. […]

[2] = Joint residence time after intra-articular injection (IVIS imaging); conditions: rats, calculated from half-life, dose injected and drug EC50
Text: Prior to injection, knee joints were shaved and disinfected with iodine scrub and 70% ethanol, 3 times. Rats were serially imaged at timepoints using a IVIS Spectrum (Perkin-Elmer) instrument at 640/680 nm. Images were quantified by drawing an anatomical Region of Interest (ROI) around the knee joint, applying to each image, and measuring radiant efficiency within the ROI on Living Image (Perkin-Elmer) software. Data for each treatment group was fit to a single exponential decay curve (FIG. 4C) with a terminal plateau assigned to all groups based on imaging an untreated rat.

insulin like growth factor 1 [IGF-1]
mean width of cartilage degeneration at the cartilage surface (0% tissue depth) ([1]; 30 days after surgery): 1390 μm | mean area of degenerated medial tibial cartilage, % of total cartilage area ([1]; joint concentration of IGF-1, 30 days after surgery): 19.7% | reduction of osteophyte burden versus untreated (osteophytes): ~50% | mean total osteophyte volume (burden) (osteophytes; 30 days after surgery, microCT): 0.60 mm^3 | time at relevant (therapeutic) doses in the joint [2]: 3 days
